From article PMC11950244, “Discovery of novel dual-target inhibitors of LSD1/EGFR for non-small cell lung cancer therapy” (Acta Pharmacologica Sinica, 2025)
Like-named read-outs stand apart in the source and are kept apart here.

Legend:
[1] = system: BaF3 cells harboring EGFR L858R/T790M/C797S mutant; set-up: method as in PMID 30429956; conditions: read-out: IC50 BaF3 cells harboring EGFR L858R/T790M/C797S, previous studies; cited from earlier work
[2] = system: BaF3 cells stably expressing EGFR (L858R/T790M/C797S); assay: BaF3 cell assay (CTG luminescence); conditions: Mus musculus, BaF3, read-out: BaF3 cell assay IC50 (μM) L858R/T790M/C797S
Experimental: The following steps were followed for cell culture and compound treatment:
% Inhibition is calculated as follow: %Inhibition=1−LUMcmpd−LUMave−pc/LUMave−vc−LUMave−pc×100
LUMcmpd = LUM for compound being tested
LUMave_pc = Average LUM for positive controls (10 μM Control Compound)
LUMave_vc = Average LUM for vehicle controls (0.1% DMSO)

[3] = biological target: LSD1 (Homo sapiens, UniProt O60341); assay: LSD1 enzymatic assay; format: biochemical; conditions: for Bottom / Top / Hillslope: concentration-response curve fit parameter;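 for Bottom: percent inhibition of LSD1 activity from the fitted dose-response curve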;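 for Top: percent inhibition of LSD1 activity from the fitted dose-response curve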
Experimental: A total of 12 compounds were purchased from J&K Scientific Ltd. (Shanghai, China). The biological experiments of inhibiting the enzymatic activity of LSD1 by 12 test compounds were conducted by Pharmaron (Beijing, China). Each compound was serially diluted 4-fold in 100% dimethyl sulfoxide (DMSO) from a starting DMSO stock concentration of 20 mM to obtain 10 concentration doses. Seclidemstat was used as a positive control. The diluted compounds were added to the LSD1 assay buffer (50 mM Tris-HCl, pH 7.5, and 1% DMSO) and incubated with LSD1 for 30 min at room temperature. The peptide substrate was then added to initiate the reaction, and the mixture was further incubated for 60 min at room temperature. The reaction was stopped by adding the stop solution, followed by the addition of the detection solution containing protein-A-Eu, streptavidin-d2, and anti-Histone H3 (dimethyl K9) antibody. […] The IC50 was calculated using a nonlinear regression (dose response – variable slope) by fitting the inhibition ratio and log of compound concentrations using Graphpad 8.0.

[4] = read-out: IC50 (μM) against LSD1

Compound	Relative potency % [3]	Bottom [3]	Top [3]	IC50 [3, 4]	also measured
COc1cc(N2CCC(N3CCN(C)CC3)CC2)ccc1Nc1ncc(Cl)c(Nc2ccccc2P(C)(C)=O)n1 [Brigatinib, reference compound]					IC50 [1]: 0.42 µM; IC50 [2]: 0.4 µM
CCN(CC)c1ccc(/C=C2/C(=O)NC(=O)N(c3ccc(Cl)cc3)C2=O)cc1 [D-1]					IC50 [3]: > 100 µM
CCN(CC)c1ccc(/C=C2/C(=O)NC(=O)N(c3ccc(Cl)cc3)C2=O)c(OC)c1 [D-2]					IC50 [3]: > 100 µM
CCN(CC)c1ccc(/C=C2/C(=O)NC(=O)N(c3ccc(C(F)(F)F)cc3)C2=O)c(O)c1 [D-3]	0.4%	8.10	45.78		IC50 [3]: 35.7 µM
Cc1ccc(-c2noc(-c3cccn(CC(=O)Nc4ccccc4Br)c3=O)n2)cc1 [D-4]	0.5%	5.79	60.26	29.2 µM	Hillslope [3]: 4.05
COc1ccccc1NC(=O)Cn1cc(-c2nc(-c3ccc(C)cc3)no2)ccc1=O [D-5]	0.7%	7.19	54.06	21.5 µM	Hillslope [3]: 2.04
CCOc1ccccc1NC(=O)Cn1cc(-c2nc(-c3ccc(C)cc3)no2)ccc1=O [D-6]				> 100 µM	
COC(=O)c1ccccc1NC(=O)Cn1cc(-c2nc(-c3ccc(C)cc3)no2)ccc1=O [D-7]				> 100 µM	
Cc1ccc(-c2noc(-c3ccc(=O)n(CC(=O)Nc4cccc(Br)c4)c3)n2)cc1 [D-8]				> 100 µM	
Cc1ccc(-c2noc(-c3ccc(=O)n(CC(=O)Nc4ccc(Br)cc4)c3)n2)cc1 [D-9]	0.5%	3.84	52.57	26.6 µM	
Cc1ccc(-c2noc(-c3ccc(=O)n(CC(=O)Nc4ccccc4C(F)(F)F)c3)n2)cc1 [D-10]	0.4%	2.43	42.68	34.3 µM	
